Results published in patent publication US6197495A, “Methods using the staphylococcus aureus glycyl tRNA synthetase crystalline structure” (SmithKline Beecham Corporation, priority 1998, dated 2001).
pIC50, pKd: −log10 of the molar value.

How the values were obtained:
[1] = target: T1, Staphylococcus aureus glycyl tRNA synthetase (GRS), SEQ ID NO:1 (Staphylococcus aureus, UniProt P99129); experiment: Aminoacylation assay of GRS catalytic activity in the presence of a range of inhibitor concentrations; format: biochemical; conditions: S. aureus GRS; four parameter logistic fit; tRNA acylation with radiolabelled glycine, 37° C.; read-out: IC50 (the inhibitor concentration at which GRS activity is reduced by half)
T1 construct: purified enzyme or crude lysate; homodimer
T1 sequence (P99129 1-463): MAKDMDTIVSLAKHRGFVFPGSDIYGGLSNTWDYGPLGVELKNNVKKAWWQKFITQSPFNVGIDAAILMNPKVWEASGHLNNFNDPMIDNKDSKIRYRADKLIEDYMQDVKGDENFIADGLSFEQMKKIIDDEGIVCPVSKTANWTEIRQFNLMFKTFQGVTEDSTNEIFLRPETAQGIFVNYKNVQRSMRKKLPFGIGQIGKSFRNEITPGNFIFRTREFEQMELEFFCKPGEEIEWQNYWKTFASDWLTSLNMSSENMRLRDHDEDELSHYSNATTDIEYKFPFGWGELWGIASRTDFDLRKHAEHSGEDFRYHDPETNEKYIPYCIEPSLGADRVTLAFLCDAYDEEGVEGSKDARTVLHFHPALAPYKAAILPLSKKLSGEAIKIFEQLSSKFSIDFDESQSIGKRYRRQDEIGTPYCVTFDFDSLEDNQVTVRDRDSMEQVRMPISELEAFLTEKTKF
From the text: (§1) Glycylsulfmoyladenosine is an analogue of the Gly-AMP reaction intermediate and inhibits GRS catalytic activity as measured by any of the techniques described in the examples below. Estimates of the potency of inhibition are obtained by performing enzyme assays in the presence of a range of inhibitor concentrations, and fitting the effect of inhibitor concentration on enzyme velocity to a four parameter logistic function that allows calculation of an IC50 (the inhibitor concentration at which GRS activity is reduced by half). […] Binding of glycylsulfamoyladenosine to GRS can also be measured directly using stopped-flow fluorescence techniques because enzyme:inhibitor binary complex has around 5% higher tryptophan fluorescence than the free enzyme. Experiments of this type yield the following elementary rate constants for inhibitor binding; kon =1.1×10^6 s^-1.M^-1, koff =2.9s ^-1 .
Assays were performed either using purified S. aureus GRS overexpressed in E. coli, or using crude cell lysate from E. coli overexpressing GRS. The latter contained around 10% of total protein as GRS. Enzyme was stored at -70° C. in 50 mM Tris-HCl buffer (pH 7.8), 10 mM MgCl2 and 10 mM B-mercaptoethanol after flash freezing in liquid N2. […]
The assay procedure was as follows. […] The filters were dried at 70° C. for 1 hour and the levels of radioactivity measured by scintillation counting (Packard Topcount). […]

[2] = target: T1, Staphylococcus aureus glycyl tRNA synthetase (GRS), SEQ ID NO:1; experiment: Stopped-flow tryptophan fluorescence measurement of inhibitor binding to GRS
From the text: as §1
(1) Effects of ligand binding upon enzyme intrinsic fluorescence (e.g. of tryptophan). Binding of either natural ligands or inhibitors may result in enzyme conformational changes which alter enzyme fluorescence. Using stopped-flow fluorescence equipment, this can be used to define the microscopic rate constants that describe binding. Alternatively, steady-state fluorescence titration methods can yield the overall dissociation constant for binding in the same way that these are accessed through enzyme inhibition experiments.

## NCC(=O)NS(=O)(=O)OC[C@H]1O[C@@H](n2cnc3c(N)ncnc32)[C@H](O)[C@@H]1O [glycylsulfamoyladenosine, 5'-O-Glycylsulfamoyladenosine]
[1]
  pIC50: ~5.62
[2]
  koff: 2.9 s⁻¹
  kon: 1.1e+06 M⁻¹ s⁻¹
[2]; estimate from the ratio of koff and kon
  pKd: 5.59
